The source of these data is US20190031665A1, “DERIVATIVES OF PYRROLOIMIDAZOLE OR ANALOGUES THEREOF WHICH ARE USEFUL FOR THE TREATMENT OF INTER ALIA CANCER” (EMCURE PHARMACEUTICALS LIMITED, priority 2016, published 2019).

Assay [1] addresses T1, human tryptophan 2,3-dioxygenase (hTDO) (Homo sapiens, UniProt P48775).
T1 construct: His tag (N); purchased BPS Bioscience, San Diego, Calif., USA; host or cells: E. coli
The assay can be described thus: In-vitro human tryptophan 2,3-dioxygenase (TDO) enzyme assay. In kind it is biochemical. The note with it: hTDO enzyme at 1.0 μM concentration. The protocol:
In the in-vitro human tryptophan 2,3-dioxygenase (hTDO) enzyme assay for screening inhibitor compounds, hTDO with an N-terminal histidine tag expressed and purified from E. coli (BPS Bioscience, San Diego, Calif., USA) was used. All other materials were procured from Sigma-Aldrich, St. Louis, Mo., USA.
The assay monitoring method for the conversion of L-tryptophan to N-formylkynurenine by hTDO was carried out as follows. hTDO (125 ng) was incubated in the presence of 200 μM L-tryptophan, 100 mM sodium phosphate buffer (pH 7.0), 0.01% Tween-20 and 100 μM ascorbic acid at about 37° C. for about 60 minutes. The reaction was terminated with 200 mM piperidine (PIP) and further incubated at about 65° C. for about 20 minutes to convert N-formylkynurenine (NFK) to NFK-PIP. The reaction mixture was then incubated at room temperature for about 75 minutes. The fluorescence intensity was read in a fluorescence microplate reader at an excitation wavelength of 400 nm and emission wavelength of 500 nm. Percent inhibition at each concentration of test compounds was determined by estimating the decrease in NFK-PIP. Data were analyzed using nonlinear regression to generate IC50 values using Graph Pad Prism® 6.

The target in assay [2] is T2, human indoleamine 2,3-dioxygenase 1 (hIDO1) (Homo sapiens, UniProt P14902).
T2 construct: His tag (N); purchased BPS Bioscience, San Diego, Calif., USA; host or cells: E. coli
The assay can be described thus: In-vitro human indoleamine 2,3-dioxygenase 1 (IDO1) enzyme assay. In kind it is biochemical. The note with it: for IC50: hIDO1 enzyme; for inhibition at 1 µM: hIDO1 enzyme at 1.0 μM concentration; for inhibition at 10 µM: hIDO1 enzyme at 10.0 μM concentration. The protocol: In-vitro human indoleamine 2,3-dioxygenase 1 (IDO1) enzyme assay: In the in-vitro human indoleamine 2,3-dioxygenase 1 (hIDO1) enzyme assay for screening inhibitor compounds, hIDO1 with an N-terminal histidine tag expressed and purified from E. coli (BPS Bioscience, San Diego, Calif., USA) was used. All other materials were procured from Sigma-Aldrich, St. Louis, Mo., USA.
The assay method for monitoring the conversion of L-tryptophan to N-formylkynurenine by hlDO1 was carried out as follows. hlDO1 (50 ng) was incubated with tryptophan (80 μM) in the presence of ascorbic acid (10 mM), methylene blue (10 μM), catalase (100 μg/ml) and 0.01% Tween-20 in sodium phosphate buffer (50 mM; pH 6.5) at 37° C. for 60 min. The reaction was terminated with 200 mM piperidine (PIP) and further incubated at about 65° C. for about 20 minutes to convert N-formylkynurenine (NFK) to NFK-PIP. The reaction mixture was then incubated at room temperature for about 1 hour. The fluorescence intensity was read in a fluorescence microplate reader at an excitation wavelength of 400 nm and emission wavelength of 500 nm. Percent inhibition at each concentration of test compounds was determined by estimating the decrease in NFK-PIP. Data were analyzed using nonlinear regression to generate IC50 values using Graph Pad Prism® 6.

T1 sequence (P48775 whole entry): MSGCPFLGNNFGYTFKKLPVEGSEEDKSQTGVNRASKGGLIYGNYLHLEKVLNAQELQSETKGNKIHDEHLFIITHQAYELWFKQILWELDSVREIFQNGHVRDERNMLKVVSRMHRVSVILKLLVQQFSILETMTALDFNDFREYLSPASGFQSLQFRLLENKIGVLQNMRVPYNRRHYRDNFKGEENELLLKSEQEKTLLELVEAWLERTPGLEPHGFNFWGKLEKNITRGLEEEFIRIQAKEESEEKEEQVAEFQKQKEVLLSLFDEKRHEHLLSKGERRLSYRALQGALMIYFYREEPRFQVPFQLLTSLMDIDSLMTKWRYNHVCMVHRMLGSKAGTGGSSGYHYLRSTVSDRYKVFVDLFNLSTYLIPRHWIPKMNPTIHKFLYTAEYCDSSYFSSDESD
T2 sequence (P14902 whole entry): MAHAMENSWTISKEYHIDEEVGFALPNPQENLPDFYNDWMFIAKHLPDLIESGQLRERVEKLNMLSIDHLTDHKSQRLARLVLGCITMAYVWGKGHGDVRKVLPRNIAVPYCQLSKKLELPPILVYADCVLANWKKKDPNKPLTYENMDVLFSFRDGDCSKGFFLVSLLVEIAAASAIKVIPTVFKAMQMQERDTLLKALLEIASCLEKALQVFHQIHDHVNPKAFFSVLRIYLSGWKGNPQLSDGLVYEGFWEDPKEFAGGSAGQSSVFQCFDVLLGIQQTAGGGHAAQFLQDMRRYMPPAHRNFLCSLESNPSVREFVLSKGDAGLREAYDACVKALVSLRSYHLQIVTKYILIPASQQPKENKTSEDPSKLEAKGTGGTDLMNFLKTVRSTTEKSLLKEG

The term inhibition denotes the change of the read-out against control, counted positive when it falls. A low value points to a weak effect. For orientation: IC50 means the concentration that gives 50% inhibition. High values mean weaker potency in that assay, low ones greater potency in that assay. Take `CC1=C(c2ccccc2)C(CC(=O)c2ccc(-c3ccccc3)cc2)n2cncc21` (stereo not drawn) [Example 41, 1-([1,1′-biphenyl]-4-yl)-2-(7-methyl-6-phenyl-5H-pyrrolo[1,2-c]imidazol-5-yl)ethan-1-one]: the inhibition at 1 µM in assay [1] was no less than 50%. Further, in assay [2], the IC50 was less than 0.5 µM, the inhibition at 1 µM is no less than 50% and the inhibition at 10 µM is no less than 50%.
In turn, `CC1=C(c2ccccc2)C(CC(O)c2ccc(-c3ccccc3)cc2)n2cncc21` (stereo not drawn) [Example 44, 1-([1,1′-biphenyl]-4-yl)-2-(7-methyl-6-phenyl-5H-pyrrolo[1,2-c]imidazol-5-yl)ethan-1-ol] showed an inhibition at 1 µM in assay [1] of no less than 50%. In assay [2], this molecule returned an inhibition at 1 µM of no less than 50% and an inhibition at 10 µM of no less than 50%.
As to `CC1=C(c2ccccc2)C(CC(=O)c2ccsc2)n2cncc21` (stereo not drawn) [Example 45, 2-(7-methyl-6-phenyl-5H-pyrrolo[1,2-c]imidazol-5-yl)-1-(thiophen-3-yl)ethan-1-one], the inhibition at 1 µM in assay [1] is no less than 50%; in assay [2], no more than 50%. The molecule further gave an inhibition at 10 µM in assay [2] of no less than 50%.
Consider `CC1=C(c2ccccc2)C(CC(=O)c2ccc(N(C)C)cc2)n2cncc21` (stereo not drawn) [Example 46, 1-(4-(dimethylamino)phenyl)-2-(7-methyl-6-phenyl-5H-pyrrolo[1,2-c]imidazol-5-yl)ethan-1-one], for which the inhibition at 1 µM in assay [1] is no less than 50%. Further, in assay [2], the inhibition at 1 µM was no more than 50% and the inhibition at 10 µM was no less than 50%.
With `CC1=C(c2ccccc2)C(CC(=O)c2ccc3c(c2)CCCC3)n2cncc21` (stereo not drawn) [Example 47, 2-(7-methyl-6-phenyl-5H-pyrrolo[1,2-c]imidazol-5-yl)-1-(5,6,7,8-tetrahydronaphthalen-2-yl)ethan-1-one], the inhibition at 1 µM in assay [1] was no less than 50%. In assay [2], this molecule registered an inhibition at 1 µM of no less than 50% and an inhibition at 10 µM of no less than 50%.
In assay [1], `CC1=C(c2ccccc2)C(CC(=O)c2ccc(Oc3ccccc3)cc2)n2cncc21` (stereo not drawn) [Example 48, 2-(7-methyl-6-phenyl-5H-pyrrolo[1,2-c]imidazol-5-yl)-1-(4-phenoxyphenyl)ethan-1-one] gave an inhibition at 1 µM of no less than 50%. Besides, in assay [2], the 50% inhibitory concentration (IC50) is greater than 0.5 µM, the inhibition at 1 µM is no less than 50% and the inhibition at 10 µM is no less than 50%.
On to `CC1=C(c2ccccc2)C(CC(=O)c2ccc(N3CCOCC3)cc2)n2cncc21` (stereo not drawn) [Example 49, 2-(7-methyl-6-phenyl-5H-pyrrolo[1,2-c]imidazol-5-yl)-1-(4-morpholinophenyl)ethan-1-one], for which the inhibition at 1 µM in assay [1] is no less than 50%. Further, in assay [2], the inhibition at 1 µM is no more than 50% and the inhibition at 10 µM is no less than 50%.
Turning to `CC1=C(c2ccccc2)C(CC(=O)c2ccc(N3CCCCC3)cc2)n2cncc21` (stereo not drawn) [Example 50, 2-(7-methyl-6-phenyl-5H-pyrrolo[1,2-c]imidazol-5-yl)-1-(4-(piperidin-1-yl)phenyl)ethan-1-one], the inhibition at 1 µM in assay [1] was no less than 50%. In assay [2], this molecule had an inhibition at 1 µM of no more than 50% and an inhibition at 10 µM of no less than 50%.
Molecule `CC1=C(c2ccccc2)C(CC(=O)c2ccc(Br)cc2)n2cncc21` (stereo not drawn) [Example 51, 1-(4-bromophenyl)-2-(7-methyl-6-phenyl-5H-pyrrolo[1,2-c]imidazol-5-yl)ethan-1-one] had an inhibition at 1 µM in assay [1] of no less than 50%. In assay [2], this molecule had a half-inhibitory concentration (IC50) greater than 0.5 µM, an inhibition at 1 µM of no less than 50% and an inhibition at 10 µM of no less than 50%.
Turning to `CC1=C(c2ccccc2)C(CC(O)c2ccc(Br)cc2)n2cncc21` (stereo not drawn) [Example 52, 1-(4-bromophenyl)-2-(7-methyl-6-phenyl-5H-pyrrolo[1,2-c]imidazol-5-yl)ethan-1-ol], in assay [1], the inhibition at 1 µM is no less than 50%. Moreover, in assay [2], the inhibition at 1 µM is no more than 50% and the inhibition at 10 µM is no less than 50%.
Molecule `CC1=C(c2ccccc2)C(CC(=O)c2ccc(-c3ccncc3)cc2)n2cncc21` (stereo not drawn) [Example 53] had an inhibition at 1 µM in assay [1] of no less than 50%. In assay [2], the IC50 was less than 0.5 µM, the inhibition at 1 µM is no less than 50% and the inhibition at 10 µM was no less than 50%.
Take `CC1=C(c2ccccc2)C(CC(=O)c2ccc(-c3cncnc3)cc2)n2cncc21` (stereo not drawn) [Example 54]: the inhibition at 1 µM in assay [1] and in assay [2] was no less than 50% each time. Besides, the inhibition at 10 µM in assay [2] was no less than 50%.
In assay [1], `CC1=C(c2ccccc2)C(CC(=O)c2ccc(-c3cccnc3)cc2)n2cncc21` (stereo not drawn) [Example 55] showed an inhibition at 1 µM of no less than 50%. In assay [2], this molecule showed a half-maximal inhibitory concentration (IC50) of less than 0.5 µM, an inhibition at 1 µM of no less than 50% and an inhibition at 10 µM of no less than 50%.
The molecule `CC1=C(c2ccccc2)C(CC(=O)c2ccc(-c3ccsc3)cc2)n2cncc21` (stereo not drawn) [Example 56] returned an inhibition at 1 µM in assay [1] of no more than 50%. In assay [2], this molecule gave a 50% inhibitory concentration (IC50) of less than 0.5 µM, an inhibition at 1 µM of no less than 50% and an inhibition at 10 µM of no less than 50%.
Regarding `CC1=C(c2ccccc2)C(CC(=O)c2ccc(-c3ccc(O)cc3)cc2)n2cncc21` (stereo not drawn) [Example 57], in assay [1], the inhibition at 1 µM was no more than 50%. In assay [2], this molecule had an IC50 of less than 0.5 µM, an inhibition at 1 µM of no less than 50% and an inhibition at 10 µM of no less than 50%.
In assay [1], `CC1=C(c2ccccc2)C(CC(=O)c2ccc(-c3ccccc3F)cc2)n2cncc21` (stereo not drawn) [Example 58] had an inhibition at 1 µM of no more than 50%. In assay [2], this molecule registered an IC50 of less than 0.5 µM, an inhibition at 1 µM of no less than 50% and an inhibition at 10 µM of no less than 50%.
Turning to `CC1=C(c2ccccc2)C(CC(O)c2ccc(-c3ccncc3)cc2)n2cncc21` (stereo not drawn) [Example 59], the inhibition at 1 µM in assay [1] was no more than 50%. For the same molecule, in assay [2], the inhibition at 1 µM was no more than 50% and the inhibition at 10 µM was no less than 50%.
Consider `CC1=C(c2ccccc2)C(CC(O)c2ccc(-c3ccsc3)cc2)n2cncc21` (stereo not drawn) [Example 60], for which the inhibition at 1 µM in assay [1] and in assay [2] was no more than 50% throughout. This molecule came in with an inhibition at 10 µM in assay [2] of no less than 50%.
With `CC1=C(c2ccccc2)C(CC(=O)c2ccc(-c3ccc(C(F)(F)F)cc3)cc2)n2cncc21` (stereo not drawn) [Example 61], the inhibition at 1 µM in assay [1] is no more than 50%. In assay [2], the inhibition at 1 µM is no more than 50% and the inhibition at 10 µM was no less than 50%.
The molecule `CC1=C(c2ccccc2)C(CC(=O)c2ccc(-c3ccc(C)cc3)cc2)n2cncc21` (stereo not drawn) [Example 62] registered an inhibition at 1 µM in assay [1] of no less than 50%. For the same molecule, in assay [2], the IC50 was less than 0.5 µM, the inhibition at 1 µM is no less than 50% and the inhibition at 10 µM was no less than 50%.
Consider `CC1=C(c2ccccc2)C(CC(=O)c2ccc(-c3ccc(F)cc3)cc2)n2cncc21` (stereo not drawn) [Example 63], for which the inhibition at 1 µM in assay [1] and in assay [2] was no less than 50% throughout. This molecule displayed an inhibition at 10 µM in assay [2] of no less than 50%.
Molecule `CC1=C(c2ccccc2)C(CC(=O)c2ccc(-c3ccc(C)s3)cc2)n2cncc21` (stereo not drawn) [Example 64] gave an inhibition at 1 µM in assay [1] of no more than 50%. In assay [2], the IC50 was less than 0.5 µM, the inhibition at 1 µM was no less than 50% and the inhibition at 10 µM is no less than 50%.
`CC1=C(c2ccccc2)C(CC(=O)c2ccc(-c3ccc(-c4ccccc4)cc3)cc2)n2cncc21` (stereo not drawn) [Example 65] had an inhibition at 1 µM in assay [1] of no more than 50%. In assay [2], this molecule gave an inhibition at 1 µM of no more than 50% and an inhibition at 10 µM of no more than 50%.
Turning to `CC1=C(c2ccccc2)C(CC(=O)c2ccc(-c3cnc[nH]3)cc2)n2cncc21` (stereo not drawn) [Example 67], the inhibition at 1 µM in assay [1] is no less than 50%. Further, in assay [2], the IC50 was greater than 0.5 µM, the inhibition at 1 µM is no less than 50% and the inhibition at 10 µM was no less than 50%.
Take `CC1=C(c2ccccc2)C(CC(=O)c2cccc(Br)c2)n2cncc21` (stereo not drawn) [Example 68, 1-(3-Bromo-phenyl)-2-(7-methyl-6-phenyl-5H-pyrrolo[1,2-c]imidazol-5-yl)-ethanone]: the inhibition at 1 µM in assay [1] is no less than 50%. In assay [2], this molecule yielded an inhibition at 1 µM of no less than 50% and an inhibition at 10 µM of no less than 50%.
Molecule `CC1=C(c2ccccc2)C(CC(=O)c2cccc(-c3ccccc3)c2)n2cncc21` (stereo not drawn) [Example 69] returned an inhibition at 1 µM in assay [1] of no more than 50%. In assay [2], the half-maximal inhibitory concentration (IC50) was greater than 0.5 µM, the inhibition at 1 µM is no less than 50% and the inhibition at 10 µM is no less than 50%.
As to `CC1=C(c2ccccc2)C(CC(=O)c2cccc(-c3ccccc3F)c2)n2cncc21` (stereo not drawn) [Example 70], the inhibition at 1 µM in assay [1] is no less than 50%. For the same molecule, in assay [2], the inhibition at 1 µM was no less than 50% and the inhibition at 10 µM is no less than 50%.
Take `CC1=C(c2ccccc2)C(CC(=O)c2ccc(C3CCCCC3)cc2)n2cncc21` (stereo not drawn) [Example 73]: the inhibition at 1 µM in assay [1] and in assay [2] was no more than 50% each time. The molecule also had an inhibition at 10 µM in assay [2] of no less than 50%.
